This is an account of results in PMC9674830, “A glutamine-based single α-helix scaffold to target globular proteins” (Nature Communications, 2022).

A short description of the data set: Oligomeric state by SEC-MALS and native MS. It counts as physicochemical. Particulars: SEC-MALS (and native MS where stated). The text has this: To analyze the origin of this behavior and exploit it for peptide design we studied four peptides of identical amino acid composition but with two potential Glni+4 → Leui interactions (pink arrows in Fig. 1a) at different relative positions. The first such interaction is common to all peptides and the second one is shifted 1 (peptide P1-5), 2 (P2-6), 3 (P3-7), or 5 (P5-9) positions towards the C-terminus. After confirming that they were monomeric under our experimental conditions by size exclusion chromatography coupled to multiple angle light scattering (SEC-MALS) (Supplementary Fig. 1d), we used solution-state nuclear magnetic resonance (NMR) spectroscopy to probe their structural properties by exploiting the quantitative dependence of ^13Cα and ^1Hα NMR chemical shifts on residue-specific helical propensity, where larger ^13Cα and lower ^1Hα shifts indicate higher helicity.
We then used CD spectroscopy to study the secondary structure of peptides containing two and three pairs of concatenated Glni+4 → Leui interactions, (P3-7)2 and (P3-7)3, and obtained that they are highly helical and monomeric (Θ222 nm/Θ208 nm < 1) (Fig. 1c, d). […]
These samples were treated with 400 μL of methanol to precipitate the serum proteins and centrifuged for 30 min at 277 K. The supernatant was filtered and analyzed by HPLC to calculate the percentage of intact peptide in the sample. […]
(Size exclusion chromatography separates by hydrodynamic size, large species first.)

In the case of “KKPGASLAALQALQALQAAQAAKKY [(P3-7)2, Gln-based single α-helix scaffold peptide]”, the Oligomeric state entry is reported as “monomeric”.
